Where two headings read alike, the source gives them in different places. Numbered stars: 1 amine (or outer) side, 2 acyl side, 3 side chain; on linkers, the order of the positions; unused ones are H or OH. Bridge positions count the residues as written; N and C are the ends. Square brackets hold non-standard residues; d marks the D form. Peptide text beside a SMILES is read from it. I, II: the chains in the order shown. * marks the point of attachment. Phe(4-CF3) = N[C@@H](Cc1ccc(C(F)(F)F)cc1)C(=O)O; Phe(4-tBu) = CC(C)(C)c1ccc(C[C@H](N)C(=O)O)cc1; Phe(2-CONH2) = NC(=O)c1ccccc1C[C@H](N)C(=O)O; Diglycolyl = O=C(COCC(=O)[*:2])[*:1]; Oleoyl = CCCCCCCC/C=C\CCCCCCCC(=O)*; NMeR = CN[C@@H](CCCNC(=N)N)C(=O)O; β3hE = N[C@@H](CCC(=O)O)CC(=O)O; NMeK = CN[C@@H](CCCCN)C(=O)O; Pen = CC(C)(S)[C@H](N)C(=O)O
Columns and labels:
[1] = Simulated Intestinal Fluid (SIF) Stability Assay; format: in vitro ADME, porcine; settings: pig, simulated intestinal fluid (SIF) with porcine pancreatin, pH 6.5, Table 3-B
Experimental: Studies were carried out in simulated intestinal fluid (SIF) to evaluate intestinal stability of the peptide molecules of the instant invention. To prepare the SIF reagent, blank FASSIF was prepared by dissolving 0.348 g NaOH, 3.954 g sodium phosphate monobasic monohydrate and 6.186 g NaCl in a final volume of 1 liter water (final pH=6.5). To this solution, 24 g porcine pancreatin (Sigma catalog P7545) was added and stirred for 30 minutes (final pancreatin concentration is 2.4%). The solution was filtered through a cheese cloth and a No. 1 Whatman filter, and 10 ml aliquots were stored at −70° C. To run the reaction, a 10 ml aliquot was thawed at 37° C., and 125 ul aliquots were removed and mixed with an equal volume of blank FASSIF. The peptide stock solution (10 mM in 100% DMSO) was diluted 75-fold in blank FASSIF. A 50 μl aliquot of the diluted peptide was combined with 125 μl pancreatin (2.4%) and 125 μl blank FASSIF to yield final concentrations of 1% pancreatin and 22 μM peptide. The reactions were incubated at 37° C., and at various time points 50 μl aliquots were removed and added to 200 μl of quench solution containing 50% acetonitrile, 50% methanol, 5% formic acid, and 1 μg/ml internal standard. The quenched samples were centrifuged at 10,000 rpm for 10 minutes, and the supernatants were analyzed by LCMS/MS. The percent remaining at each time point was calculated based on the peak area response ratio of test to compound to internal standard. Half-lives were calculated by fitting to a first-order exponential decay equation using GraphPad.

[2] = biological target: α4β7 (Homo sapiens, UniProt P13612+P26010); assay: α4β7-MAdCAM Cell Adhesion Assay (RPMI 8866 human cells); format: cell-based; parameters: host or cells: RPMI 8866 human B lymphoblastoid cells; settings: Table 3-B, Potency (α4β7); range classes; read-out: α4β7 cell (Hu) IC50
Chain of α4β7 (P13612 34-1032): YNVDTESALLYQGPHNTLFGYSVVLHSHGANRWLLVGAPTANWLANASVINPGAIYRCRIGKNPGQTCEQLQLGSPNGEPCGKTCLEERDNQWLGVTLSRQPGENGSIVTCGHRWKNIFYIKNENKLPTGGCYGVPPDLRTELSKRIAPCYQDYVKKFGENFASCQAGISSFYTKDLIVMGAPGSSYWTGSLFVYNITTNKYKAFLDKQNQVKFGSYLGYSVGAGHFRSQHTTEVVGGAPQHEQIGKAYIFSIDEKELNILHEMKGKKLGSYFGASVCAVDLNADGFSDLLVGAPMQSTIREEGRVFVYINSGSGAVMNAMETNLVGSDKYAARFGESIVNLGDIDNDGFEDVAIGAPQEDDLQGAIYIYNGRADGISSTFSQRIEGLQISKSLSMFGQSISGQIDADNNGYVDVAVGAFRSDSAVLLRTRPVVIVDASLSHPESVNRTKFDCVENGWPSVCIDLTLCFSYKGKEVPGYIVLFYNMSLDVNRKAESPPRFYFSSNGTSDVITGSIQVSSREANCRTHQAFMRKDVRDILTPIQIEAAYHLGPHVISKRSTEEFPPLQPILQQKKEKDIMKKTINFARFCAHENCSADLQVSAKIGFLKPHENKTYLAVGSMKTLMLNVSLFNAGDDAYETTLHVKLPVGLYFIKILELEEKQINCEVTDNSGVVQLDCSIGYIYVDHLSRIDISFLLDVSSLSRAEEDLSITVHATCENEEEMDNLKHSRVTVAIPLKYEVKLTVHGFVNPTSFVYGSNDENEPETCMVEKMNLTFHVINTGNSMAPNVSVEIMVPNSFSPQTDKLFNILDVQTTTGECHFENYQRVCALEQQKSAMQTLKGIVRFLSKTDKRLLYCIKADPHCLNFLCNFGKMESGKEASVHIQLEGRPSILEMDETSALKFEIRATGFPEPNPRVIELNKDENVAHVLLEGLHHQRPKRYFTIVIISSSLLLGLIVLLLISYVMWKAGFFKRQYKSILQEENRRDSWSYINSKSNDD
Chain of α4β7 (P26010 20-798): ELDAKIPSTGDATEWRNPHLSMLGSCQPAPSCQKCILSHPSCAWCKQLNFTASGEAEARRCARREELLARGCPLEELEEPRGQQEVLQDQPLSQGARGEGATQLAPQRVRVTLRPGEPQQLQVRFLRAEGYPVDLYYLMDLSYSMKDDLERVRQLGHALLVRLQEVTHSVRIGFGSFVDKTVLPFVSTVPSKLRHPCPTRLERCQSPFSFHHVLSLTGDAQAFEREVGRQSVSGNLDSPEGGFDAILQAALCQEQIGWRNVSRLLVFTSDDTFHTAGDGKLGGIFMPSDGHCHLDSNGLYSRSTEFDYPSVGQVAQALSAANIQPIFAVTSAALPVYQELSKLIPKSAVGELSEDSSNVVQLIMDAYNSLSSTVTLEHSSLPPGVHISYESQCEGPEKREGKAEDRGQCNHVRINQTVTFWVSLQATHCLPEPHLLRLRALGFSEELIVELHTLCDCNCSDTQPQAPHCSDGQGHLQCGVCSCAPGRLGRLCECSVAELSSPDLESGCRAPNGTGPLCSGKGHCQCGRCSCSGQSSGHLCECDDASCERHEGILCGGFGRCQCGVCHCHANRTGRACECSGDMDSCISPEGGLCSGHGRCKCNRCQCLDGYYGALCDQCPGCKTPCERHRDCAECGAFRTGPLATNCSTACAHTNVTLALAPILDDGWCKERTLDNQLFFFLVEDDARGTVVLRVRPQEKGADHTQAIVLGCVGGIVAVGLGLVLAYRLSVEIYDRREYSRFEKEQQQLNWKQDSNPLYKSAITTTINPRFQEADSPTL
Method in brief: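 Washed RPMI 8866 cells (200,000/well) in DMEM with 0.1% BSA, 10 mM HEPES pH 7, 1 mM MnCl2 adhered to rh MAdCAM-1/Fc-coated wells with serially diluted peptides, 30-45 min at 37 °C. After three washes, bound cells quantified by MTT, A570, cell-free background subtracted for dose response.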

[3] = > means experiment was stopped at that time and half life was not reached, read-out: Stabilty SIF t1/2
[4] = alone or in parentheses after >360, read-out: Stabilty SIF t1/2, in hr (converted)

| half-life at 22 μM [1, 3] | SMILES | IC50 [2] | other results |
| --- | --- | --- | --- |
| > 6 h | CC(=O)N[C@@H]1C(=O)N(C)[C@@H](CCCNC(=N)N)C(=O)N[C@@H](CO)C(=O)N[C@@H](CC(=O)O)C(=O)N[C@@H]([C@@H](C)O)C(=O)N[C@@H](CC(C)C)C(=O)N[C@H](C(=O)N[C@@H](Cc2ccc(C(C)(C)C)cc2)C(=O)N[C@@H](CCC(=O)O)C(=O)N[C@H](CCCCNC(=O)COCC(=O)NCCCC[C@@H](NC(=O)[C@H](CCC(=O)O)NC(=O)[C@H](Cc2ccc(C(C)(C)C)cc2)NC(=O)[C@H]2NC(=O)[C@H](CC(C)C)NC(=O)[C@H]([C@@H](C)O)NC(=O)[C@H](CC(=O)O)NC(=O)[C@H](CO)NC(=O)[C@H](CCCNC(=N)N)N(C)C(=O)[C@@H](NC(C)=O)C(C)(C)SSC2(C)C)C(N)=O)C(N)=O)C(C)(C)SSC1(C)C [compound 131] (I: Ac-[Pen][NMeR]SDTL[Pen][Phe(4-tBu)]E[dK]-NH2 / II: Ac-[Pen][NMeR]SDTL[Pen][Phe(4-tBu)]E[dK]-NH2; disulfide I:1-I:7, II:1-II:7; linker I:10-II:10 via Diglycolyl) |  | half-life at 22 μM [1, 4]: 9 h |
| > 6 h | CC(=O)N[C@@H]1C(=O)N(C)[C@@H](CCCNC(=N)N)C(=O)N[C@@H](CO)C(=O)N[C@@H](CC(=O)O)C(=O)N[C@@H]([C@@H](C)O)C(=O)N[C@@H](CC(C)C)C(=O)N[C@H](C(=O)N[C@@H](Cc2ccc(C(C)(C)C)cc2)C(=O)N[C@@H](CCC(=O)O)C(=O)N(C)[C@@H](CCCCNC(=O)COCC(=O)NCCCC[C@@H](C(N)=O)N(C)C(=O)[C@H](CCC(=O)O)NC(=O)[C@H](Cc2ccc(C(C)(C)C)cc2)NC(=O)[C@H]2NC(=O)[C@H](CC(C)C)NC(=O)[C@H]([C@@H](C)O)NC(=O)[C@H](CC(=O)O)NC(=O)[C@H](CO)NC(=O)[C@H](CCCNC(=N)N)N(C)C(=O)[C@@H](NC(C)=O)C(C)(C)SSC2(C)C)C(N)=O)C(C)(C)SSC1(C)C [compound 133] (I: Ac-[Pen][NMeR]SDTL[Pen][Phe(4-tBu)]E[NMeK]-NH2 / II: Ac-[Pen][NMeR]SDTL[Pen][Phe(4-tBu)]E[NMeK]-NH2; disulfide I:1-I:7, II:1-II:7; linker I:10-II:10 via Diglycolyl) |  | half-life at 22 μM [1, 4]: 11 h |
| 0.1 h | CC(=O)N[C@@H]1CCCCNC(=O)COCC(=O)NCCCC[C@@H](NC(C)=O)C(=O)N[C@H]2CSSC[C@H](NC(=O)[C@H](CC(C)C)NC(=O)[C@H]([C@@H](C)O)NC(=O)[C@H](CC(=O)O)NC(=O)[C@H](CO)NC(=O)[C@H](CCCNC(=N)N)N(C)C2=O)C(=O)N[C@@H](Cc2c[nH]c3ccccc23)C(=O)N[C@@H](C(N)=O)CCCCNC(=O)COCC(=O)NCCCC[C@H](C(N)=O)NC(=O)[C@H](Cc2c[nH]c3ccccc23)NC(=O)[C@@H]2CSSC[C@H](NC1=O)C(=O)N(C)[C@@H](CCCNC(=N)N)C(=O)N[C@@H](CO)C(=O)N[C@@H](CC(=O)O)C(=O)N[C@@H]([C@@H](C)O)C(=O)N[C@@H](CC(C)C)C(=O)N2 [compound 5] (I: Ac-[dK]C[NMeR]SDTLCW[dK]-NH2 / II: Ac-[dK]C[NMeR]SDTLCW[dK]-NH2; linker I:1-II:1, I:10-II:10 via Diglycolyl; disulfide I:2-I:8, II:2-II:8) |  |  |
| > 3 h | CC(=O)N[C@@H]1C(=O)N(C)[C@@H](CCCNC(=N)N)C(=O)N[C@@H](CO)C(=O)N[C@@H](CC(=O)O)C(=O)N[C@@H]([C@@H](C)O)C(=O)N[C@@H](CC(C)C)C(=O)N[C@H](C(=O)N[C@@H](Cc2ccc(C(F)(F)F)cc2)C(=O)N[C@H](CCC(=O)O)C(=O)N[C@H](CCCCNC(=O)COCC(=O)NCCCC[C@@H](NC(=O)[C@@H](CCC(=O)O)NC(=O)[C@H](Cc2ccc(C(F)(F)F)cc2)NC(=O)[C@H]2NC(=O)[C@H](CC(C)C)NC(=O)[C@H]([C@@H](C)O)NC(=O)[C@H](CC(=O)O)NC(=O)[C@H](CO)NC(=O)[C@H](CCCNC(=N)N)N(C)C(=O)[C@@H](NC(C)=O)C(C)(C)SSC2(C)C)C(N)=O)C(N)=O)C(C)(C)SSC1(C)C [compound 3] (I: Ac-[Pen][NMeR]SDTL[Pen][Phe(4-CF3)][dE][dK]-NH2 / II: Ac-[Pen][NMeR]SDTL[Pen][Phe(4-CF3)][dE][dK]-NH2; disulfide I:1-I:7, II:1-II:7; linker I:10-II:10 via Diglycolyl) |  |  |
|  | CC(=O)N[C@@H]1C(=O)N(C)[C@@H](CCCNC(=N)N)C(=O)N[C@@H](CO)C(=O)N[C@@H](CC(=O)O)C(=O)N[C@@H]([C@@H](C)O)C(=O)N[C@@H](CC(C)C)C(=O)N[C@H](C(=O)N[C@@H](Cc2ccccc2C(N)=O)C(=O)N[C@H](CCC(=O)O)C(=O)N[C@H](CCCCNC(=O)COCC(=O)NCCCC[C@@H](NC(=O)[C@@H](CCC(=O)O)NC(=O)[C@H](Cc2ccccc2C(N)=O)NC(=O)[C@H]2NC(=O)[C@H](CC(C)C)NC(=O)[C@H]([C@@H](C)O)NC(=O)[C@H](CC(=O)O)NC(=O)[C@H](CO)NC(=O)[C@H](CCCNC(=N)N)N(C)C(=O)[C@@H](NC(C)=O)C(C)(C)SSC2(C)C)C(N)=O)C(N)=O)C(C)(C)SSC1(C)C [compound 98] (I: Ac-[Pen][NMeR]SDTL[Pen][Phe(2-CONH2)][dE][dK]-NH2 / II: Ac-[Pen][NMeR]SDTL[Pen][Phe(2-CONH2)][dE][dK]-NH2; disulfide I:1-I:7, II:1-II:7; linker I:10-II:10 via Diglycolyl) | 50 to 100 nM |  |
|  | CCCCCCCC/C=C\CCCCCCCC(=O)N[C@@H]1C(=O)N(C)[C@@H](CCCNC(=N)N)C(=O)N[C@@H](CO)C(=O)N[C@@H](CC(=O)O)C(=O)N[C@@H]([C@@H](C)O)C(=O)N[C@@H](CC(C)C)C(=O)N[C@H](C(=O)N[C@@H](Cc2ccc(C(C)(C)C)cc2)C(=O)N[C@@H](CCC(=O)O)CC(=O)N[C@H](CCCCN)C(N)=O)C(C)(C)SSC1(C)C [compound 180] (Oleoyl-[Pen][NMeR]SDTL[Pen][Phe(4-tBu)][β3hE][dK]-NH2; disulfide 1-7) | 1000 to 10000 nM |  |
|  | CC(=O)N[C@@H]1C(=O)N(C)[C@@H](CCCNC(=N)N)C(=O)N[C@@H](CO)C(=O)N[C@@H](CC(=O)O)C(=O)N[C@@H]([C@@H](C)O)C(=O)N[C@@H](CC(C)C)C(=O)N[C@H](C(=O)N[C@@H](Cc2c[nH]c3ccccc23)C(=O)N2CCC[C@H]2C(=O)N[C@@H](CCCCNC(=O)COCC(=O)NCCCC[C@H](NC(=O)[C@@H]2CCCN2C(=O)[C@H](Cc2c[nH]c3ccccc23)NC(=O)[C@H]2NC(=O)[C@H](CC(C)C)NC(=O)[C@H]([C@@H](C)O)NC(=O)[C@H](CC(=O)O)NC(=O)[C@H](CO)NC(=O)[C@H](CCCNC(=N)N)N(C)C(=O)[C@@H](NC(C)=O)C(C)(C)SSC2(C)C)C(N)=O)C(N)=O)C(C)(C)SSC1(C)C [compound 95] (I: Ac-[Pen][NMeR]SDTL[Pen]WPK-NH2 / II: Ac-[Pen][NMeR]SDTL[Pen]WPK-NH2; disulfide I:1-I:7, II:1-II:7; linker I:10-II:10 via Diglycolyl) | 100 to 500 nM |  |

| SMILES | half-life at 22 μM [1, 3] | IC50 [2] | other results |
| --- | --- | --- | --- |
| CC(=O)N[C@@H]1C(=O)N(C)[C@@H](CCCNC(=N)N)C(=O)N[C@@H](CO)C(=O)N[C@@H](CC(=O)O)C(=O)N[C@@H]([C@@H](C)O)C(=O)N[C@@H](CC(C)C)C(=O)N[C@H](C(=O)N[C@@H](Cc2ccc(C(C)(C)C)cc2)C(=O)N[C@@H](CCC(=O)O)CC(=O)N[C@H](CCCCNC(=O)CN(CC(=O)NCCCC[C@@H](NC(=O)C[C@H](CCC(=O)O)NC(=O)[C@H](Cc2ccc(C(C)(C)C)cc2)NC(=O)[C@H]2NC(=O)[C@H](CC(C)C)NC(=O)[C@H]([C@@H](C)O)NC(=O)[C@H](CC(=O)O)NC(=O)[C@H](CO)NC(=O)[C@H](CCCNC(=N)N)N(C)C(=O)[C@@H](NC(C)=O)C(C)(C)SSC2(C)C)C(N)=O)C(=O)CCNC(=O)c2ccc(-c3c4ccc(=N)c(S(=O)(=O)O)c-4oc4c(S(=O)(=O)O)c(N)ccc34)c(C(=O)O)c2)C(N)=O)C(C)(C)SSC1(C)C [compound 182] | > 3 h |  |  |
| CC(=O)N[C@@H]1C(=O)N(C)[C@@H](CCCNC(=N)N)C(=O)N[C@@H](CO)C(=O)N[C@@H](CC(=O)O)C(=O)N[C@@H]([C@@H](C)O)C(=O)N[C@@H](CC(C)C)C(=O)N[C@H](C(=O)N[C@@H](Cc2ccc(C(C)(C)C)cc2)C(=O)N[C@@H](CCC(=O)O)CC(=O)N[C@H](CCCCNC(=O)CN(CC(=O)NCCCC[C@@H](NC(=O)C[C@H](CCC(=O)O)NC(=O)[C@H](Cc2ccc(C(C)(C)C)cc2)NC(=O)[C@H]2NC(=O)[C@H](CC(C)C)NC(=O)[C@H]([C@@H](C)O)NC(=O)[C@H](CC(=O)O)NC(=O)[C@H](CO)NC(=O)[C@H](CCCNC(=N)N)N(C)C(=O)[C@@H](NC(C)=O)C(C)(C)SSC2(C)C)C(N)=O)C(=O)CCNC(=O)CCCCCC2(C)C(=CC=CC=CC3=[N+](CCCS(=O)(=O)[O-])c4ccc(S(=O)(=O)O)cc4C3(C)C)N(CCCS(=O)(=O)O)c3ccc(S(=O)(=O)O)cc32)C(N)=O)C(C)(C)SSC1(C)C (single isomer, unassigned) [compound 183] | > 3 h |  | half-life at 22 μM ([1]; in parentheses after >180, read-out: Stabilty SIF t1/2, value in parentheses): 7.77 h |

— patent publication US9809623B2, “α4β7 peptide monomer and dimer antagonists” (Protagonist Therapeutics, Inc., priority 2014, dated 2017)
